This is an account of results in patent publication US10751387B2, “Pharmacological therapy for neuronopathic Gaucher disease” (priority 2016, dated 2020).

For data set [1], the system named is CBE-N2a cells. Description: Substrate (GC, GS) levels in nGD cell model (CBE-N2a) by ESI-LC-MS/MS. The class given is cell-based, mouse. The conditions noted are these: 5 days. The procedure:
(§1) N2a cells were maintained in DMEM/10% FBS (Gibco) medium. Neuronal differentiation of N2a was carried out in the differentiation medium containing 0.5% FBS, 10 μM retinoic acid, 50 ng/ml GDNF (Alomore lab) and 1 mM dbcAMP in DMEM for 3 days (37). The differentiated N2a cells were treated with 2 mM CBE for 5 days in the differentiation medium. […]. The medium with the reagents was changed every 2 days. The differentiation status of the neuronal cells was confirmed by anti-Map2 (mature neuron) or anti-Nestin (undifferentiated neuronal cells) antibody staining. Cell viability after each drug treatment was measured by CellTiter-Fluoirm Cell Viability assay (Promega). […]. The cells were from same passage and treated at the same time for all the experiments.
(§2) Glycosphingolipids in mouse brains and N2a cells were extracted with chloroform and methanol as described (83). GC and GS content in the extracts was analysed by ESI-LC-MS/MS using a Waters Quattro Micro API triple quadrupole mass spectrometer (Milford, Mass.) interfaced with Acquity UPLC system as described (35). The concentration of GC and GS in the brain was normalized to mg tissue weight and in the cells was normalized by mg protein in the cell lysate.

Data set [2] concerns 4L;C* mice. Briefly: Survival / life span in nGD mouse model. The following applies: IP 10 mg/kg three days per week.
Description: The data are presented as mean±SEM and were analysed by Student's t-test or one-way ANOVA with post-hoc Tukey test using GraphPad Prism 6. The level of significance was set at P<0.05. Survival analysis was performed using Kaplan-Meier and the Mantel-Cox tests.
The nature of data set [3]: Body and organ weights of treated mice. The following applies: IP 10 mg/kg three days per week. In kind it is in vivo, mouse.
Data set [4] deals with Ryr3. Description: Immunoblot of Ryr3 in 4L;C* cerebrum. In kind it is in vivo, mouse. The following applies: 44 days of age, untreated 9%. On the procedure: (§3) Half of mice brain (sagittal cut) tissues were homogenized in M-PER Mammalian Protein Extraction Reagent and subjected to electrophoresis. Ryr proteins (−500 kD) in tissues lysate were separated on 3-8% NuPAGE gel running at 90V for 12 h at 4° C. in acetate buffer. 13-actin was resolved on 4-12% Bis-Tris gel. The proteins were transferred to PVDF membrane using iBlot 2 gel transfer device following manufacturer's instructions. The blots were incubated with anti-mouse Ryr3 monoclonal antibody (1/250) or anti-13-actin (1:5000) overnight at 4° C. in 1.5% BSA/1.5% milk/PBS buffer. LC3, CAMK IV and calmodulin were separated on 16% Tris-glycine gel (Novex) and detected by anti-LC3 (1:1000), anti-CAMK IV (1:500) or anti-CAM (1:1000), respectively. The signals were detected with either ECL detection reagent or AP Conjugate Substrate Kit according to manufacturer's instructions. Band intensities on immunoblots were quantitated by Image J (NIH, Baltimore, Va.).
A general note: A western blot detects proteins with antibodies after separation by electrophoresis.

The test system of data set [5] is 4L;C* mice. Description: Gait analysis in nGD mouse model.
Description: Progression of the neurobehavioural phenotype was assessed by gait analysis to determine sensorimotor function (77,78). Mice were trained to walk through a narrow alley leading into their home-cage. Once trained, paper was placed along the alley floor and the hind paws of each mouse were brushed with nontoxic paint. The mice were then placed at the beginning of the alley. As they walked into their home-cage they left their paw prints on the paper underneath. Stride length and width were determined by measuring the distance between hind paw prints. The 4L;C* and control mice, untreated and non-4L;C* littermates were tested for gait at 30 and 40 days of age.
In another data set the test system is CAMK IV. Description: Immunoblot of CAMK IV in 4L;C* cerebrum. The class given is in vivo, mouse. More on the design: reference not given here. The conditions noted are these: untreated 61% of WT level. The procedure: as §3
In data set [6] the test system is Ryr3. Description: Immunoblot of Ryr3 in CBE-N2a cells. In kind it is cell-based, mouse. The following applies: dantrolene 12.5 μM, untreated 47%. On the procedure:
as §1
as §3, with “13-actin was resolved on 4-12% Bis-Tris gel. The proteins were transferred to PVDF membrane using iBlot 2 gel transfer device following manufacturer's instructions. The blots were incubated with anti-mouse Ryr3 monoclonal antibody (1/250) or anti-13-actin (1:5000) overnight at 4° C. in 1.5% BSA/1.5% milk/PBS buffer.” left out

Another data set has as its system Ryr1 and Ryr3. The following applies: reference 58; cited from earlier work.
Data set [7] concerns CBE-N2a cells. Description: Cytosolic calcium level measurement with Fura-2 after caffeine. In kind it is cell-based, mouse. The conditions noted are these: CBE-N2a cells vs untreated; dantrolene 12.5 μM, ryanodine 10 μM, G6 0.8 μM, 5 days; caffeine 10 mM.
Description: (§4) N2a cells were maintained in DMEM/10% FBS (Gibco) medium. Neuronal differentiation of N2a was carried out in the differentiation medium containing 0.5% FBS, 10 μM retinoic acid, 50 ng/ml GDNF (Alomore lab) and 1 mM dbcAMP in DMEM for 3 days (37). The differentiated N2a cells were treated with 2 mM CBE for 5 days in the differentiation medium. […] The medium with the reagents was changed every 2 days. […] Cell viability after each drug treatment was measured by CellTiter-Fluoirm Cell Viability assay (Promega). […] The cells were from same passage and treated at the same time for all the experiments.
Intracellular calcium levels were determined using the Fura-2 QBT Calcium Kit (Molecular Devices, Sunnyvale, Calif.) on 96 well plates by M5 SpectraMax plate reader (Molecular Devices). N2a cells were seeded in each well (20,000/well) with differentiation medium (0.5% FBS, DMEM, 10 AM retinoic acid, 1 mM dbcAMP) for 72 h (37). […] The cell medium was replaced every two days. The treated cells were incubated with Fura-2 QBT dye at 37 C for 1 h for Fura-2 QBT uptake (Fura2 QBT® calcium kit protocol, Molecular Devices). Caffeine (10 mM) was used as an ER calcium efflux stimulant in the assay (38,39). The plate reader setting was 340/380 nm (excitation) and 510 nm (emission). Baseline calcium levels were measured prior to caffeine addition (−30 s). Cytosolic calcium levels were recorded every 30 s for duration of 300 s after addition of caffeine. Relative cytosolic calcium levels were determined with the values at 300 s endpoint minus Os baseline. Relative cytosolic calcium level [Fura-2 AF/F (340/380510 nm] for control or treated cells was calculated by Fura-2 fluorescence unit (FU) measured at 340 nm/510 nm (AF=RFU/340 at 300 s end point minus baseline RFU/340 at 0 s) divided by FU at 380 nm/510 nm (F=RFU/380 at 300 s-baseline RFU/380 at 0 s) (Fura2 QBT® calcium kit protocol, Molecular Devices) and normalized to protein level in cells. Data were collected and analysed by SoftMax Pro software (Molecular Devices) and graphical charts were generated by Graphpad Prism 6.0.
A further data set deals with ryanodine receptor. The following applies: vendor listing (Sigma); cited from earlier work.
For a further data set, the system named is N2a cells. Briefly: Substrate (GC, GS) levels in N2a cells by ESI-LC-MS/MS. The class given is cell-based, mouse. The conditions noted are these: G6 0.8 μM, 5 days. On the procedure: as §1, §2
In data set [8] the test system is CBE-N2a cells. Briefly: Seahorse mitochondrial function assay (OCR) in cells. The conditions noted are these: CBE-N2a cells vs untreated CBE-N2a; dantrolene 12.5 μM, G6 0.8 μM. The class given is cell-based, mouse.
Description: as §4
Cell numbers were determined using a haemocytometer. Prior to mitochondrial function assay on XF96 Extracellular Flux Analyzers (Seahorse Biosciences), the cells in the wells of XF96 assay plates were washed by gently adding warm assay medium to the side of each well. […] The respiration parameters were calculated by subtracting the average respiration rates before and after the addition of the electron transport inhibitors: oligomycin, FCCP and antimycin A. The parameters include basal respiration (baseline respiration minus antimycin A post injection respiration), ATP production (baseline respiration minus oligomycin post injection respiration), and maximal respiratory (FCCP stimulated respiration minus antimycin A post injection respiration). […]

Where “and” joins values, the source holds several entries; their conditions need not be identical. Equal values may be shown once. Bounds are passed on as bounds.

For the compound `O=C1CN(/N=C/c2ccc(-c3ccc([N+](=O)[O-])cc3)o2)C(O)=N1` [Dantrolene], the “GC and GS levels” value with CBE-N2a cells [1] (CBE-N2a cells, dantrolene 12.5 μM, G6 0.8 μM) is “did not affect”. In the data set on 4L;C* mice [2] (10 mg/kg), the “Life span / survival prolonged compared to untreated 4L;C* mice” value is 12.3% and 12.7%. In the data set with 4L;C* mice [2] (untreated 44 days), the Median survival days turned out to be 50 days. Besides, the “Body or organ weights” value in [3] is “did not affect”. The “Ryr3 protein level, % of WT” value with Ryr3 [4] is 77%. Further, the Base stride width result in the data set with 4L;C* mice [5] (IP 10 mg/kg three days per week from postnatal day 5, 30 and 40 days of age, vs untreated) is “significantly reduced”. For the same compound, in the data set on 4L;C* mice [5] (IP 10 mg/kg three days per week, 40 days of age), the “Stride length increase compared to untreated 4L;C* mice” value is 30%. Moreover, the “CAMK IV expression increase” value with CAMK IV was determined as 28%. Moreover, the “Ryr3 protein level, % of WT level” value in the data set on Ryr3 [6] turned out to be 76%. For the same compound, in the data set on Ryr1 and Ryr3, the Ryr specificity entry was “specific to Ryr1 and Ryr3”. Further, in the data set with CBE-N2a cells [7], the “Cytosolic calcium level above baseline after caffeine [Fura-2 ΔF/F]” value is “significantly reduced”.
Turning to Ryanodine, the “Ryanodine receptor antagonist concentration” value with ryanodine receptor was above 10 µM. Besides, the “Cytosolic calcium level above baseline after caffeine [Fura-2 ΔF/F]” value with CBE-N2a cells [7] is on record as “significant reduction”.
Regarding `CC(C)(NC(=O)OC1CN2CCC1CC2)c1cccc(-c2ccc(F)cc2)c1` (stereo not drawn) [G6], in the data set with CBE-N2a cells [1] (CBE-N2a cells vs untreated), the GS level result is on record as “significantly decreased”. Besides, the “GC reduction to % of untreated levels” value in the data set with CBE-N2a cells [1] (CBE-N2a cells, G6 0.8 μM) was 26%; in the data set with N2a cells, 7%. In the data set with CBE-N2a cells [8], the “Oxygen Consumption Rate (OCR: ATP production, basal respiration, maximal respiration)” value is recorded as “significant increases”. Besides, the “Cytosolic calcium level above baseline after caffeine [Fura-2 ΔF/F]” value in the data set on CBE-N2a cells [7] is “significantly lower”.
